According to patent US11053213B2, “Pharmaceutical compounds” (ALMAC DISCOVERY LIMITED, priority 2016, dated 2021):
pIC50: −log10 of the molar value.

Target: USP19 (Homo sapiens (Human), UniProt O94966)
Assay: USP19 activity assay (fluorescence polarisation, Ubiquitin-Lys-TAMRA substrate)
Format: biochemical
Settings: full-length USP19 2.5 nM, 30 min pre-incubation, Ub substrate 500 nM; average of at least two duplicate experiments

Sequence of USP19 (O94966 whole entry): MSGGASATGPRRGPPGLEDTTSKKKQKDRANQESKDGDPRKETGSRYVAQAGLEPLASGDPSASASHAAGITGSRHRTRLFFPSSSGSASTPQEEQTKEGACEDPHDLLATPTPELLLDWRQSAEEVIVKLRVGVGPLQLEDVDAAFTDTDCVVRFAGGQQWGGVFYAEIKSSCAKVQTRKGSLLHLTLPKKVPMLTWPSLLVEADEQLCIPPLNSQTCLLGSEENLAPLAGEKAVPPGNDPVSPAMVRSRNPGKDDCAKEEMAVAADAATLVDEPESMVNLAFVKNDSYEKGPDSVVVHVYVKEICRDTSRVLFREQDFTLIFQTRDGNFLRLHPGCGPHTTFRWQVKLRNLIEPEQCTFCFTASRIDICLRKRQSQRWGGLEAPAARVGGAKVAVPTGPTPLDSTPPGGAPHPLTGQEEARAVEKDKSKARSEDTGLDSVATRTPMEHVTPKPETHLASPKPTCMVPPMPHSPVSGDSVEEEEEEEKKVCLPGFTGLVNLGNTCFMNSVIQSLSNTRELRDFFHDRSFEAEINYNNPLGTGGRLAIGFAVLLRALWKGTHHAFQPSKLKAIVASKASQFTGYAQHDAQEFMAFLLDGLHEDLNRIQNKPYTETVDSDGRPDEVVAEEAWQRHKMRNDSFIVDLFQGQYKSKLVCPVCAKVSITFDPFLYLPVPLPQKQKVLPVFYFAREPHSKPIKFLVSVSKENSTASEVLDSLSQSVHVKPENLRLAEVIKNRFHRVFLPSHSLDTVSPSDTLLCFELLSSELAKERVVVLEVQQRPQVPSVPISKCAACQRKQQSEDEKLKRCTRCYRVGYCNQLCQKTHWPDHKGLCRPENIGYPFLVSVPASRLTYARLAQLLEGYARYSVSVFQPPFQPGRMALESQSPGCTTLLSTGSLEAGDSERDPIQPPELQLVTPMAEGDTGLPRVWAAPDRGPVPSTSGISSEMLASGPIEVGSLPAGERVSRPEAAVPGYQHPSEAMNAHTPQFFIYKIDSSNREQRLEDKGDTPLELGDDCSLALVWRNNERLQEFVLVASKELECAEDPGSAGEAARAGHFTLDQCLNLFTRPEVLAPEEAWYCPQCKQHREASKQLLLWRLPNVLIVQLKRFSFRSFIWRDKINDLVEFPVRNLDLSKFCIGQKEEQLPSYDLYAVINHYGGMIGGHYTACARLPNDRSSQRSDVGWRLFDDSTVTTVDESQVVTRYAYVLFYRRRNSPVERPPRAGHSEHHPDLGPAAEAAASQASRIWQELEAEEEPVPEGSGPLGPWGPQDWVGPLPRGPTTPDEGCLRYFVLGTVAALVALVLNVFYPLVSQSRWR

pIC50	Compound
3.60 to 4.30	CN(C)C(=O)c1cn(CC2(O)CCN(C(=O)c3cc[nH]n3)CC23CCCC3)c(=O)cc1-c1ccccc1 (centres unmarked) [Example 187, 1-((10-Hydroxy-7-(1H-pyrazole-3-carbonyl)-7-azaspiro[4.5]decan-10-yl)methyl)-N,N-dimethyl-6-oxo-4-phenyl-1,6-dihydropyridine-3-carboxamide]
> 6.30	C[C@H](CC(F)(F)F)C(=O)N1CC[C@@](O)(Cn2cc(C(=O)N(C)C)c(-c3ccccc3)cc2=O)C2(CCCC2)C1 [Example 216, 1-(((S)-10-Hydroxy-7-((R)-4,4,4-trifluoro-2-methylbutanoyl)-7-azaspiro[4.5]decan-10-yl)methyl)-N,N-dimethyl-6-oxo-4-phenyl-1,6-dihydropyridine-3-carboxamide]
> 6.30	C[C@H](CC1CCCCC1)C(=O)N1CCC(O)(Cn2cnc(-c3ccsc3)cc2=O)C(C)(C)C1 (stereo partly drawn) [Example 135, 3-((1-((R)-3-Cyclohexyl-2-methylpropanoyl)-4-hydroxy-3,3-dimethylpiperidin-4-yl)methyl)-6-(thiophen-3-yl)pyrimidin-4(3H)-one]
> 6.30	C[C@H](CC1CCC1)C(=O)N1CC[C@@](O)(Cn2cc(C(=O)N(C)C)c(-c3ccccc3)cc2=O)C2(CCCC2)C1 [Example 214, 1-(((S)-7-((R)-3-Cyclobutyl-2-methylpropanoyl)-10-hydroxy-7-azaspiro[4.5]decan-10-yl)methyl)-N,N-dimethyl-6-oxo-4-phenyl-1,6-dihydropyridine-3-carboxamide]
4.30 to 5.30	C[C@H](CC1CCCCC1)C(=O)N1CCC(O)(Cn2cnc(-c3cn[nH]c3)cc2=O)C(C)(C)C1 (stereo partly drawn) [Example 132, 3-((1-((R)-3-Cyclohexyl-2-methylpropanoyl)-4-hydroxy-3,3-dimethylpiperidin-4-yl)methyl)-6-(1H-pyrazol-4-yl)pyrimidin-4(3H)-one]
4.30 to 5.30	CC(CN1CCOCC1)C(=O)N1CCC(O)(Cn2cc(C(=O)N(C)C)c(-c3ccccc3)cc2=O)C2(CCCC2)C1 (centres unmarked) [Example 163, 1-((10-Hydroxy-7-(2-methyl-3-morpholinopropanoyl)-7-azaspiro[4.5]decan-10-yl)methyl)-N,N-dimethyl-6-oxo-4-phenyl-1,6-dihydropyridine-3-carboxamide]
3.60 to 4.30	C[C@H](CC1CCCCC1)C(=O)N1CC[C@](O)(Cn2cc(C(=O)N(C)C)c(-c3ccccc3)cc2=O)C(C)(C)C1 [Example 122, 1-(((R)-1-((R)-3-Cyclohexyl-2-methylpropanoyl)-4-hydroxy-3,3-dimethylpiperidin-4-yl)methyl)-N,N-dimethyl-6-oxo-4-phenyl-1,6-dihydropyridine-3-carboxamide]
> 6.30	C[C@H](CC1CCC1)C(=O)N1CC[C@@](O)(Cn2cc(C(=O)N3CCNCC3)c(-c3ccccc3F)cc2=O)C2(CCCC2)C1 [Example 224, 1-(((S)-7-((R)-3-Cyclobutyl-2-methylpropanoyl)-10-hydroxy-7-azaspiro[4.5]decan-10-yl)methyl)-4-(2-fluorophenyl)-5-(piperazine-1-carbonyl)pyridin-2(1H)-one]
4.30 to 5.30	C[C@H](CC(=O)N1CCC(O)(Cn2cc(-c3ccco3)c(-c3ccccc3)cc2=O)CC1)c1ccccc1 [Example 8, (R)-5-(Furan-2-yl)-1-((4-hydroxy-1-(3-phenylbutanoyl)piperidin-4-yl)methyl)-4-phenylpyridin-2(1H)-one]
> 6.30	C[C@H](CC1CCCCC1)C(=O)N1CC[C@@](O)(Cn2cc(C(=O)N3CCNCC3)c(C3CC3)cc2=O)C2(CCCC2)C1 [Example 233, 1-(((S)-7-((R)-3-Cyclohexyl-2-methylpropanoyl)-10-hydroxy-7-azaspiro[4.5]decan-10-yl)methyl)-4-cyclopropyl-5-(piperazine-1-carbonyl)pyridin-2(1H)-one]
4.30 to 5.30	C[C@H](CC(=O)N1CCC(O)(Cn2cc(-c3ccccc3)c(-c3ccccc3)cc2=O)CC1)c1ccccc1 [Example 98, (R)-1-((4-Hydroxy-1-(3-phenylbutanoyl)piperidin-4-yl)methyl)-4,5-diphenylpyridin-2(1H)-one]
3.60 to 4.30	CC(=O)Nc1ccccc1-c1cc(=O)n(CC2(O)CCN(C(=O)C[C@@H](C)c3ccccc3)CC2)cn1 [Example 85, (R)—N-(2-(1-((4-Hydroxy-1-(3-phenylbutanoyl)piperidin-4-yl)methyl)-6-oxo-1,6-dihydropyrimidin-4-yl)phenyl)acetamide]
4.30 to 5.30	C[C@H](CC(=O)N1CCC(O)(Cn2cc(C(=O)NCC3CC3)c(-c3ccccc3)cc2=O)CC1)c1ccccc1 [Example 104, (R)—N-(Cyclopropylmethyl)-1-((4-hydroxy-1-(3-phenylbutanoyl)piperidin-4-yl)methyl)-6-oxo-4-phenyl-1,6-dihydropyridine-3-carboxamide]
4.30 to 5.30	CC[C@@H](C)C(=O)N1CCC(O)(Cn2cc(C(=O)N(C)C)c(-c3ccccc3)cc2=O)C2(CCCC2)C1 (stereo partly drawn) [Example 148, 1-((10-Hydroxy-7-((R)-2-methylbutanoyl)-7-azaspiro[4.5]decan-10-yl)methyl)-N,N-dimethyl-6-oxo-4-phenyl-1,6-dihydropyridine-3-carboxamide]
5.30 to 6.30	CN(C)C(=O)c1cn(CC2(O)CCN(C(=O)C(O)Cc3ccccc3)CC23CCCC3)c(=O)cc1-c1ccccc1 (centres unmarked) [Example 203, 1-((10-Hydroxy-7-(2-hydroxy-3-phenylpropanoyl)-7-azaspiro[4.5]decan-10-yl)methyl)-N,N-dimethyl-6-oxo-4-phenyl-1,6-dihydropyridine-3-carboxamide]
4.30 to 5.30	CN(C)C(=O)c1cn(CC2(O)CCN(C(=O)C3(C)CCCCC3)CC23CCCC3)c(=O)cc1-c1ccccc1 (centres unmarked) [Example 176, 1-((10-Hydroxy-7-(1-methylcyclohexane-1-carbonyl)-7-azaspiro[4.5]decan-10-yl)methyl)-N,N-dimethyl-6-oxo-4-phenyl-1,6-dihydropyridine-3-carboxamide]
4.30 to 5.30	CC1(C(=O)N2CCC(O)(Cn3cnc(-c4ccccc4F)cc3=O)CC2)CCCCC1 [Example 42, 6-(2-Fluorophenyl)-3-((4-hydroxy-1-(1-methylcyclohexanecarbonyl)piperidin-4-yl)methyl)pyrimidin-4(3H)-one]
5.30 to 6.30	CN(C)C(=O)c1cn(CC2(O)CCN(C(=O)CCc3ccc(F)cc3)CC23CCCC3)c(=O)cc1-c1ccccc1 (centres unmarked) [Example 184, 1-((7-(3-(4-Fluorophenyl)propanoyl)-10-hydroxy-7-azaspiro[4.5]decan-10-yl)methyl)-N,N-dimethyl-6-oxo-4-phenyl-1,6-dihydropyridine-3-carboxamide]
4.30 to 5.30	CN(C)C(=O)c1cn(CC2(O)CCN(C(=O)c3ncoc3-c3ccccc3)CC23CCCC3)c(=O)cc1-c1ccccc1 (centres unmarked) [Example 192, 1-((10-Hydroxy-7-(5-phenyloxazole-4-carbonyl)-7-azaspiro[4.5]decan-10-yl)methyl)-N,N-dimethyl-6-oxo-4-phenyl-1,6-dihydropyridine-3-carboxamide]
3.60 to 4.30	C[C@H](CC(=O)N1CCC(O)(Cn2cnc(Oc3ccc(F)cc3)cc2=O)CC1)c1ccccc1 [Example 54]
4.30 to 5.30	C[C@H](CC(=O)N1CCC(O)(Cn2cc(C(=O)N(C)C)c(-c3ccccc3)cc2=O)CC1)c1ccccc1 [Example 95, (R)-1-((4-Hydroxy-1-(3-phenylbutanoyl)piperidin-4-yl)methyl)-N,N-dimethyl-6-oxo-4-phenyl-1,6-dihydropyridine-3-carboxamide]
3.60 to 4.30	Cc1c(-c2cc(=O)n(CC3(O)CCN(C(=O)C[C@@H](C)c4ccccc4)CC3)cn2)cnn1C [Example 112, (R)-6-(1,5-Dimethyl-1H-pyrazol-4-yl)-3-((4-hydroxy-1-(3-phenylbutanoyl)piperidin-4-yl)methyl)pyrimidin-4(3H)-one]
3.60 to 4.30	CN(C)C(=O)c1cn(CC2(O)CCN(C(=O)C3CCC(F)C3)CC23CCCC3)c(=O)cc1-c1ccccc1 (centres unmarked) [Example 177, 1-((7-(3-Fluorocyclopentane-1-carbonyl)-10-hydroxy-7-azaspiro[4.5]decan-10-yl)methyl)-N,N-dimethyl-6-oxo-4-phenyl-1,6-dihydropyridine-3-carboxamide]
5.30 to 6.30	CC(CC(=O)N1CCC(O)(Cn2cnc(-c3ccccc3F)cc2=O)C(C)(C)C1)C1CCCCC1 (centres unmarked) [Example 76, 3-((1-(3-Cyclohexylbutanoyl)-4-hydroxy-3,3-dimethylpiperidin-4-yl)methyl)-6-(2-fluorophenyl)pyrimidin-4(3H)-one]
> 6.30	C[C@H](CC1CCCCC1)C(=O)N1CC[C@@](O)(Cn2cc(C(=O)N3CCNC[C@H]3CO)c(-c3ccccc3)cc2=O)C(C)(C)C1 [Example 208, 1-(((S)-1-((R)-3-Cyclohexyl-2-methylpropanoyl)-4-hydroxy-3,3-dimethylpiperidin-4-yl)methyl)-5-((S)-2-(hydroxymethyl)piperazine-1-carbonyl)-4-phenylpyridin-2(1H)-one]
> 6.30	C[C@H](CC1CCCCC1)C(=O)N1CC[C@@](O)(Cn2cc(C(=O)N(C)C)c(-c3ccccc3F)cc2=O)C(C)(C)C1 [Example 205, 1-(((S)-1-((R)-3-Cyclohexyl-2-methylpropanoyl)-4-hydroxy-3,3-dimethylpiperidin-4-yl)methyl)-4-(2-fluorophenyl)-N,N-dimethyl-6-oxo-1,6-dihydropyridine-3-carboxamide]
4.30 to 5.30	C[C@H](CC(=O)N1CCC(O)(Cn2cnc(-c3cccc4cnn(C)c34)cc2=O)CC1)c1ccccc1 [Example 16, (R)-3-((4-Hydroxy-1-(3-phenylbutanoyl)piperidin-4-yl)methyl)-6-(1-methyl-1H-indazol-7-yl)pyrimidin-4(3H)-one]
4.30 to 5.30	C[C@H](CC(=O)N1CCC(O)(Cn2cnc(-c3cccc(C4OCCO4)c3)cc2=O)CC1)c1ccccc1 [Example 21, (R)-6-(3-(1,3-Dioxolan-2-yl)phenyl)-3-((4-hydroxy-1-(3-phenylbutanoyl)piperidin-4-yl)methyl)pyrimidin-4(3H)-one]
5.30 to 6.30	CC(C)N(C)C(=O)c1cn(CC2(O)CCN(C(=O)C3(C)CCc4ccccc4C3)CC2)c(=O)cc1-c1ccccc1F (racemic) [Example 14, (R,S)-4-(2-Fluorophenyl)-1-((4-hydroxy-1-(2-methyl-1,2,3,4-tetrahydronaphthalene-2-carbonyl)piperidin-4-yl)methyl)-N-isopropyl-N-methyl-6-oxo-1,6-dihydropyridine-3-carboxamide]
